Laboratory results published in patent publication US12448388B2, “PRMT5 inhibitors and uses thereof” (Gilead Sciences, Inc., priority 2023, dated 2025).
“And” between values parts separate entries of the source, which are not always exact repeats. Equal entries are not always repeated. Where two headings read alike, the source gives them in different places.

Key:
[1] = system: SW780 (bladder, urothelial carcinoma; MTAP-Deleted); experiment: In vitro cell viability assay (CellTiter-Glo, 9 days), SW780; format: cell-based; conditions: Homo sapiens, SW780, 216 h, 9-day treatment
Method: (§1) Some Compounds of the Disclosure were tested in Calu-6 (Vendor: ATCC; Cat #HTB-56; Description: lung, adenocarcinoma), LU99 (Vendor: JCRB; Cat #JCRB0080; Description: lung, giant cell carcinoma), SW780 (Vendor: ATCC; Cat #CRL-2169; Description: bladder, urothelial carcinoma), and BxPC-3 (Vendor: ATCC; Cat #CRL-1687; Description: pancreas, adenocarcinoma) cellular viability assays according to the general protocol. Seeded cells into 96-well plate and incubated overnight. Seeded an additional 10 wells per cell line in an additional 96-well plate for assessing Time Zero luminescence and incubated overnight. To treatment plates, added compounds into each well using Tecan D300e dispenser (nine three-fold dilutions starting at […]) and incubated for 9 days. Time Zero (no compound treatment, luminescence assessed on day 1) and 9-day treatment (luminescence assessed on day 10) plates were assessed using the same CellTiter-Glo® substrate protocol. Thawed CellTiter-Glo® Buffer and lyophilized CellTiter-Glo® substrate and equilibrated to room temperature prior to use. Transferred 100 ml CellTiter-Glo® Buffer into amber bottle containing CellTiter-Glo® substrate to reconstitute the lyophilized enzyme/substrate mixture. For Time Zero and 9-day treatment plates, removed all plating media. Added 100 μl fresh media/well. Added 100 μl CellTiter-Glo® Reagent per well. Mixed contents for 10 min on an orbital shaker to lyse cells. Recorded luminescence with Perkin Elmer Envision 2105 machine. Analyzed the data with GraphPad software.

[2] = system: BxPC-3 (pancreas, adenocarcinoma; MTAP-Deleted); experiment: In vitro cell viability assay (CellTiter-Glo, 9 days), BxPC-3; format: cell-based; conditions: Homo sapiens, BXPC-3, 216 h, 9-day treatment
Method: as §1

[3] = Pharmacokinetics in cassette in male cynomolgus monkeys for Kp measurement; format: in vivo; conditions: cynomolgus monkey, 0.5 mg/kg, intravenous
Method: F.1 Test Animal: Cynomolgus Monkeys from Labcorp 8298417 Maintained at Labcorp-Madison
F.2 Pharmaceutical Formulation and Administration
Test compound was dissolved in the vehicle of 10% DMSO, 10% ethanol, 40% polyethylene glycol 300, and 40% propylene glycol to get 0.5 mg/mL test compound solution. The compound was administered by intravenous administration at a dose of 1 mL/kg. The intravenous dose was administered as a bolus injection followed by an approximately 2-hour infusion via an indwelling catheter in a saphenous or cephalic vein. Fasting was not required.
• Collection time: • PK for Plasma: Predose, 0.25, 1, 1.5 and 2 hours postdose (based on start of infusion) • PK for Whole Blood: 1.5 hour postdose • Anticogulant: K2EDTA • Volume: • PK for Plasma: Approximately 0.5 mL • PK for Whole Blood: Approximately 0.1 mL • Collection Site: Femoral vein; saphenous or cephalic vein

[4] = PK data (IV/PO) in Sprague-Dawley rat; format: in vivo; conditions: for half-life / clearance / Vd / bioavailability: Sprague-Dawley, rat, in vivo; for half-life / clearance / Vd: iv; for clearance: read-out: Observed CL (converted); for Vd: read-out: Vss; for bioavailability: po
[5] = PK data (IV/PO) in cynomolgus monkey; conditions: in vivo; for clearance: read-out: Observed CL (converted); for Vd: read-out: Vss; for bioavailability: PO 0.5 mg/Kg
[6] = brain Kp = [brain]/[plasma], cyno, read-out: Cyno brain Kp
[7] = brain Kpu,u = Kp * (plasma free/rat brain free), read-out: Cyno brain Kpu,u

| Compound | GI50 [1] | GI50 [2] | Kp [3, 6] | Kp [3, 7] | half-life ([4]; 0.33 mg/kg, IV 0.33 mg/Kg) | clearance ([4]; 0.33 mg/kg, IV 0.33 mg/Kg) | Vd ([4]; 0.33 mg/kg, IV 0.33 mg/Kg) | half-life ([5]; IV 0.25 mg/Kg) | clearance ([5]; IV 0.25 mg/Kg) | Vd ([5]; IV 0.25 mg/Kg) | other results |
| --- | --- | --- | --- | --- | --- | --- | --- | --- | --- | --- | --- |
| Nc1nc2cnc(C(=O)N3CC4(CC4)C[C@@H]4Oc5cc(C(F)(F)F)ccc5[C@@H]43)cc2n2cncc12 [Ff-648, (4-aminoimidazo[1,5-a]pyrido[3,4-e]pyrazin-8-yl)((4aS,9bS)-7-(trifluoromethyl)-4a,9b-dihydro-2H-spiro[benzofuro[3,2-b]pyridine-3,1′-cyclopropan]-1(4H)-yl)methanone] | 0.012 µM | 0.008 µM |  |  |  |  |  |  |  |  |  |
| Nc1nc2cnc(C(=O)N3CCC[C@@H]4Oc5cc(C(F)(F)F)ccc5[C@@H]43)cc2n2cncc12 [Ff-110, (4-aminoimidazo[1,5-a]pyrido[3,4-e]pyrazin-8-yl)((4aS,9bS)-7-(trifluoromethyl)-3,4,4a,9b-tetrahydrobenzofuro[3,2-b]pyridin-1(2H)-yl)methanone] | 0.12 µM | 0.007 µM | 0.76 | 0.1 |  |  |  |  |  |  |  |
| Nc1nc2cnc(C(=O)N3CCC[C@@H]4Oc5cc(C(F)(F)F)cc(F)c5[C@@H]43)cc2n2cncc12 (single isomer, unassigned) [Fg-53] | 0.009 µM | 0.007 µM | 0.99 | 0.16 | 4.6 h | 7.33 mL/min/kg | 2.45 L/kg | 15.4 h | 2 mL/min/kg | 2.53 L/kg | bioavailability ([4]; 1.66 mg/kg, PO 1.66 mg/Kg): 120%; bioavailability [5]: 84% |
| C[C@H]1CN(C(=O)c2cc3c(cc2F)nc(N)c2cncn23)[C@H]2c3ccc(C(F)(F)F)cc3C[C@H]2O1 (single isomer, unassigned) [Ff-81] | 0.025 µM |  | 0.96 | 0.13 |  |  |  |  |  |  | half-life ([4]; 1 mg/kg, IV 1 mg/Kg): 4.7 h; clearance ([4]; 1 mg/kg, IV 1 mg/Kg): 4 mL/min/kg; Vd ([4]; 1 mg/kg, IV 1 mg/Kg): 1.65 L/kg; half-life ([5]; IV 0.5 mg/Kg): 16 h; clearance ([5]; IV 0.5 mg/Kg): 3 mL/min/kg; Vd ([5]; IV 0.5 mg/Kg): 1.77 L/kg; bioavailability [5]: 123% |
| Nc1nc2cnc(C(=O)N3CCC[C@@H]4Oc5cc(OC(F)(F)F)cc(F)c5[C@@H]43)cc2n2cncc12 (single isomer, unassigned) [Fg-55] | 0.023 µM | 0.011 µM | 0.95 | 0.12 | 6 h | 3.5 mL/min/kg | 1.73 L/kg | 10.7 h | 2.17 mL/min/kg | 2 L/kg | bioavailability ([4]; 1.66 mg/kg, PO 1.66 mg/Kg): 99% |
| Nc1nc2cc(F)c(C(=O)N3CCC[C@@H]4Oc5cc(C(F)(F)F)ccc5[C@@H]43)cc2n2cncc12 [Ff-104, (4-amino-7-fluoroimidazo[1,5-a]quinoxalin-8-yl)((4aS,9bS)-7-(trifluoromethyl)-3,4,4a,9b-tetrahydrobenzofuro[3,2-b]pyridin-1(2H)-yl)methanone] | 0.005 µM |  | 1.78 | 0.19 | 3.7 h |  |  | 10.4 h | 1.67 mL/min/kg | 1.47 L/kg | T1/2 ([4]; IV 0.33 mg/Kg, 0.33 mg/kg): 3.77 h; % F ([4]; PO 1.66 mg/Kg, 1.66 mg/kg): 67% and 98%; half-life ([5]; IV 0.5 mg/Kg): 11 h; clearance ([5]; IV 0.5 mg/Kg): 3.17 mL/min/kg; Vd ([5]; IV 0.5 mg/Kg): 1.7 L/kg; bioavailability [5]: 108% |
| Cc1ncc2c(N)nc3cnc(C(=O)N4CCC[C@@H]5Oc6cc(OC(F)(F)F)ccc6[C@@H]54)cc3n12 [Ff-340, (4-amino-1-methylimidazo[1,5-a]pyrido[3,4-e]pyrazin-8-yl)((4aS,9bS)-7-(trifluoromethoxy)-3,4,4a,9b-tetrahydrobenzofuro[3,2-b]pyridin-1(2H)-yl)methanone] | 0.023 µM | 0.023 µM | 1.1 | 0.32 | 5.3 h | 8.83 mL/min/kg | 3.2 L/kg |  |  |  | half-life ([5]; IV 0.33 mg/Kg): 5.8 h; clearance ([5]; IV 0.33 mg/Kg): 4 mL/min/kg; Vd ([5]; IV 0.33 mg/Kg): 1.9 L/kg |
| Nc1nc2ccc(C(=O)N3CCC[C@@H]4Oc5cc(C(F)(F)F)ccc5[C@@H]43)cc2n2cncc12 [Ff-111, (4-aminoimidazo[1,5-a]quinoxalin-8-yl)((4aS,9bS)-7-(trifluoromethyl)-3,4,4a,9b-tetrahydrobenzofuro[3,2-b]pyridin-1(2H)-yl)methanone] | 0.011 µM | 0.01 µM | 1.1 | 0.23 | 5.9 h | 2.5 mL/min/kg | 1.29 L/kg |  |  |  | half-life ([5]; IV 0.33 mg/Kg): 5.9 h; clearance ([5]; IV 0.33 mg/Kg): 2.5 mL/min/kg; Vd ([5]; IV 0.33 mg/Kg): 1.29 L/kg |
| Cc1ncn2c1c(N)nc1cnc(C(=O)N3CCC[C@@H]4Oc5cc(C(F)(F)F)ccc5[C@@H]43)cc12 [Ff-499, (4-amino-3-methylimidazo[1,5-a]pyrido[3,4-e]pyrazin-8-yl)((4aS,9bS)-7-(trifluoromethyl)-3,4,4a,9b-tetrahydrobenzofuro[3,2-b]pyridin-1(2H)-yl)methanone] |  |  | 2.4 | 0.51 | 3.1 h | 8.17 mL/min/kg | 1.72 L/kg |  |  |  | half-life ([5]; IV 0.33 mg/Kg): 1.39 h; clearance ([5]; IV 0.33 mg/Kg): 24.5 mL/min/kg; Vd ([5]; IV 0.33 mg/Kg): 1.93 L/kg |
| Nc1nc2cnc(C(=O)N3CCC[C@@H]4Oc5cc(OC(F)(F)F)ccc5[C@@H]43)cc2n2cncc12 [Ff-341, (4-aminoimidazo[1,5-a]pyrido[3,4-e]pyrazin-8-yl)((4aS,9bS)-7-(trifluoromethoxy)-3,4,4a,9b-tetrahydrobenzofuro[3,2-b]pyridin-1(2H)-yl)methanone] | 0.01 µM | 0.014 µM |  |  |  |  |  | 8 h | 3.33 mL/min/kg | 2.15 L/kg | half-life ([4]; 0.25 mg/kg, IV 0.25 mg/Kg): 4.6 h; clearance ([4]; 0.25 mg/kg, IV 0.25 mg/Kg): 3.5 mL/min/kg; Vd ([4]; 0.25 mg/kg, IV 0.25 mg/Kg): 1.45 L/kg; bioavailability ([4]; 1.25 mg/kg, PO 1.25 mg/Kg): 99% |
| C[C@@H]1CN(C(=O)c2cc3c(cc2F)nc(N)c2cncn23)[C@H]2c3ccc(OC(F)(F)F)cc3C[C@H]2O1 (single isomer, unassigned) [Ff-183] | 0.019 µM | 0.012 µM |  |  |  |  |  |  |  |  |  |
| C[C@@H]1CN(C(=O)c2cc3c(cc2F)nc(N)c2cncn23)[C@H]2c3cc(F)c(OC(F)(F)F)cc3C[C@H]2O1 (single isomer, unassigned) [Ff-197] |  |  | 1.2 | 0.28 |  |  |  |  |  |  |  |
